{"source": "patent US11696956B2", "about": "“Bicyclic peptide ligands specific for EphA2” (BicycleTx Limited, priority 2017, dated 2023)", "key": {"[1]": {"target": "T1, rat EphA2 (Rattus norvegicus, UniProt D3ZBN3)", "T1 construct": "Rat; C-; In-house; N/A; polyHis (C); made in house", "T1 sequence (D3ZBN3 26-205)": "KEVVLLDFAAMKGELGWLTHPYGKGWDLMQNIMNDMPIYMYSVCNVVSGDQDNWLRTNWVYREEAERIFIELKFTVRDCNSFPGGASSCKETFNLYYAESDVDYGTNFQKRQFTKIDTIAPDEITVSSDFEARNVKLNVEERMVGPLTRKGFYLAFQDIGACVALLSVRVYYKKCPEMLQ", "assay": "FP competition binding (Study 2, alternative protocol)", "conditions": "summary of Table 10"}, "[2]": {"target": "T2, Mouse EphA2 (Mus musculus, UniProt Q03145)", "T2 construct": "EphA2 (Ecto); Mouse; C-; Sino; 50586-M08H; polyHis (C); purchased Sino Biological 50586-M08H", "T2 sequence (Q03145 26-538 limits assumed)": "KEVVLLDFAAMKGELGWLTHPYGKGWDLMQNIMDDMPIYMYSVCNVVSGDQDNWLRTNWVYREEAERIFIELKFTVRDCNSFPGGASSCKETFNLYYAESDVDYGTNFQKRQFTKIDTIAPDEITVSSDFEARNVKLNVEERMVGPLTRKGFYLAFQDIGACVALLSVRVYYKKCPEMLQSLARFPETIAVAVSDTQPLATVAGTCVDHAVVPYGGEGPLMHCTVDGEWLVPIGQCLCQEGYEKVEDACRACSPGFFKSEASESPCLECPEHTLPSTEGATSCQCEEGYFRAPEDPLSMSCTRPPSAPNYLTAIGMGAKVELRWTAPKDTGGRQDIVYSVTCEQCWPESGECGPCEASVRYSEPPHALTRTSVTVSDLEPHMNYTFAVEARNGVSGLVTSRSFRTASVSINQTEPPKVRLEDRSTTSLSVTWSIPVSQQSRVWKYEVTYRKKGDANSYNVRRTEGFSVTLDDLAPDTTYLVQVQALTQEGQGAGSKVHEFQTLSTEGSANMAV", "assay": "FP competition binding (Study 2, alternative protocol)", "conditions": "summary of Table 10"}, "[3]": {"system": "PC-3 xenograft", "assay": "Study 8: in vivo efficacy, PC-3 xenograft", "conditions": "qw", "experimental": "The major endpoint was to see if the tumor growth could be delayed or mice could be cured. Tumor volume was measured three times weekly in two dimensions using a caliper, and the volume was expressed in mm^3 using the formula: V=0.5 a×b^2 where a and b are the long and short diameters of the tumor, respectively. The tumor size was then used for calculations of T/C value. The T/C value (in percent) is an indication of antitumor effectiveness; T and C are the mean volumes of the treated and control groups, respectively, on a given day. TGI was calculated for each group using the formula: TGI (%)=[1−(Ti−T0)/(Vi−V0)]×100; Ti is the average tumor volume of a treatment group on a given day, T0 is the average tumor volume of the treatment group on the day of treatment start, Vi is the average tumor volume of the vehicle control group on the same day with Ti, and V0 is the average tumor volume of the vehicle group on the day of treatment start.\nA one-way ANOVA was performed to compare tumor volume among groups, and when a significant F-statistics (a ratio of treatment variance to the error variance) was obtained, comparisons between groups were carried out with Games-Howell test. […] P<0.05 was considered to be statistically significant.\nThe tumor cells were maintained in F-12K medium supplemented with 10% heat inactivated fetal bovine serum at 37° C. in an atmosphere of 5% CO2 in air. The tumor cells were routinely subcultured twice weekly. The cells growing in an exponential growth phase were harvested and counted for tumor inoculation.\n52 animals were randomized when the average tumor volume reached 454 mm^3.\nTumor growth inhibition rate for test articles in the PC-3 xenograft model was calculated based on tumor volume measurements at day 20 after the start of the treatment."}, "[4]": {"target": "T3, Human EphA2 (Homo sapiens, UniProt P29317)", "T3 construct": "EphA2 (Ecto); Human; C-terminal; R&D systems; 3035-A2; polyHis (C); purchased R&D systems 3035-A2", "T3 sequence (P29317 24-537 limits assumed)": "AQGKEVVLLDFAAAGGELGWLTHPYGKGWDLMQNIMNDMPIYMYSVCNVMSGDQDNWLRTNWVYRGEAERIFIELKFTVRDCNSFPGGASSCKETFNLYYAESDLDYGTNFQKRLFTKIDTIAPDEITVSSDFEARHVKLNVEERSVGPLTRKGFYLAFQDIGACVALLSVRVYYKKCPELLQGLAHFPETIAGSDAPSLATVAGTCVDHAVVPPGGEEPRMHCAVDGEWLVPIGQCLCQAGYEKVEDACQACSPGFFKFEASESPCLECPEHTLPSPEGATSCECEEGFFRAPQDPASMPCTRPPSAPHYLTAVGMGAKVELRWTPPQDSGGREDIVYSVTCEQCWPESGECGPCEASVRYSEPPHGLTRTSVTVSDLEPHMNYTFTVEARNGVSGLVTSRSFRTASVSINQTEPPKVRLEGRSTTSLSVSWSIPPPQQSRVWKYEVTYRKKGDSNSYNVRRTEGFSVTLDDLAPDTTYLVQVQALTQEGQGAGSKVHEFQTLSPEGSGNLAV", "assay": "FP competition binding (Study 2, alternative protocol)", "conditions": "summary of Table 10"}}, "data": [{"compound": "(β-Ala)-Sar10-A(HArg)DC(HyP)LVNPLCLHP(D-Asp)W(HArg)C [Compound 66]", "values": [{"measurement": "binding to rat EphA2", "setting": "[1]", "result": "bind with high affinity"}, {"measurement": "binding to mouse EphA2", "setting": "[2]", "result": "bind with high affinity"}]}, {"compound": "(β-Ala)-Sar10-A(HArg)DCPLVNPLCLHPGVVTC [Compound 67]", "values": [{"measurement": "binding to rat EphA2", "setting": "[1]", "result": "bind with high affinity"}, {"measurement": "binding to mouse EphA2", "setting": "[2]", "result": "bind with high affinity"}]}, {"compound": "CC(=O)O[C@@]12CO[C@@H]1C[C@H](O)[C@@]1(C)C(=O)[C@H](O)C3=C(C)[C@@H](OC(=O)[C@H](O)[C@@H](NC(=O)OC(C)(C)C)c4ccccc4)C[C@@](O)([C@@H](OC(=O)c4ccccc4)[C@H]21)C3(C)C", "note": "[Docetaxel]", "values": [{"measurement": "animal body weight loss", "setting": "[3]; 15 mg/kg", "result": "severe animal body weight loss"}, {"measurement": "TGI", "setting": "[3]; 15 mg/kg, day 20", "result": 101.8, "unit": "%"}, {"measurement": "TV (tumor volume)", "setting": "[3]; 15 mg/kg, day 20", "result": 419, "unit": "mm^3"}, {"measurement": "Mean tumor volume", "setting": "[3]; 15 mpk, day 0", "result": "453 ± 62", "unit": "mm^3"}, {"measurement": "Mean tumor volume", "setting": "[3]; 15 mpk, day 2", "result": "584 ± 72", "unit": "mm^3"}, {"measurement": "Mean tumor volume", "setting": "[3]; 15 mpk, day 4", "result": "632 ± 56", "unit": "mm^3"}, {"measurement": "Mean tumor volume", "setting": "[3]; 15 mpk, day 6", "result": "636 ± 48", "unit": "mm^3"}, {"measurement": "Mean tumor volume", "setting": "[3]; 15 mpk, day 8", "result": "568 ± 50", "unit": "mm^3"}, {"measurement": "Mean tumor volume", "setting": "[3]; 15 mpk, day 10", "result": "408 ± 31", "unit": "mm^3"}, {"measurement": "Mean tumor volume", "setting": "[3]; 15 mpk, day 13", "result": "374 ± 26", "unit": "mm^3"}, {"measurement": "Mean tumor volume", "setting": "[3]; 15 mpk, day 15", "result": "388 ± 36", "unit": "mm^3"}, {"measurement": "Mean tumor volume", "setting": "[3]; 15 mpk, day 17", "result": "361 ± 25", "unit": "mm^3"}, {"measurement": "Mean tumor volume", "setting": "[3]; 15 mpk, day 20", "result": "419 ± 31", "unit": "mm^3"}, {"measurement": "T/C", "setting": "[3]; 15 mpk, day 20", "result": 17.7, "unit": "%"}, {"measurement": "TGI", "setting": "[3]; 15 mpk, day 20", "result": 101.8, "unit": "%"}, {"measurement": "Tumor Volume", "setting": "[3]; 15 mpk, day 20, Mean ± SEM", "result": "419 ± 31", "unit": "mm^3"}]}, {"compound": "Ac-CPLVNPLCLHPGVVTCLHG-Sar6-(D-K) [Compound 77]", "values": [{"measurement": "binding to human EphA2", "setting": "[4]", "result": "binds"}, {"measurement": "binding to mouse EphA2", "setting": "[2]", "result": "binds"}]}]}
